Values after ≈ are worked out from the molar mass of the structure shown. Read-outs that look alike come from different tables or passages of the source. Numbered stars: 1 amine (or outer) side, 2 acyl side, 3 side chain; on linkers, the order of the positions; unused ones are H or OH. Square brackets hold non-standard residues; d marks the D form. Peptide text beside a SMILES is read from it. X19 = CN([C@@H](Cc1cccc(-c2ccc(OCc3ccccc3)cc2)c1)C(=O)[*:2])[*:1]; X2 = CN1CCN(c2ccc(-c3cccc(C[C@@H](C(=O)[*:2])N(C)[*:1])c3)cc2)CC1; X3 = CN1CCN(c2ccc(-c3cccc(C[C@@H](C(=O)[*:2])N(C)[*:1])c3)cn2)CC1; X11 = CN([C@@H](Cc1cccc(-c2cccc3ncccc23)c1)C(=O)[*:2])[*:1]; X23 = CN([C@@H](Cc1cccc(-c2cccc3c2cnn3C)c1)C(=O)[*:2])[*:1]; Hmp(2R,3S) = CC[C@H](C)[C@@H](O)C(=O)O; NMeVal(β-OH) = CN[C@H](C(=O)O)C(C)(C)O; NMeV = CN[C@H](C(=O)O)C(C)C
Key:
[1] = test system: A. fumigatus MMX 6782 ATCC 13073; experiment: MIC/MEC assay (CLSI microdilution); format: cell-based; settings: Aspergillus fumigatus
In short: (§1)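 Aspergillus isolates received approx. 0.2-2.5×10^4 CFU/mL final inoculum in RPMI-1640 plus 0.002% Tween-80, per CLSI microdilution. MMX 5280 was additionally run without Tween-80. Test compounds were serially diluted two-fold in 95% ethanol.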

[2] = test system: A. flavus MMX 5948; experiment: MIC/MEC assay (CLSI microdilution); format: cell-based; settings: Aspergillus flavus
In short: as §1

[3] = test system: A. niger MMX 0624 ATCC 16888; experiment: MIC/MEC assay (CLSI microdilution); format: cell-based
In short: as §1

[4] = test system: C. albicans MMX 2000 ATCC 10231; experiment: MIC assay (CLSI microdilution); format: cell-based; settings: Candida albicans
[5] = test system: A. fumigatus MMX 5280 ATCC MYA-3626; experiment: MIC/MEC assay (CLSI microdilution); format: cell-based, Aspergillus fumigatus
In short: as §1

[6] = test system: C. parapsilosis MMX 2323 ATCC 22019; experiment: MIC assay (CLSI microdilution); format: cell-based, Candida parapsilosis
In short: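 Broth microdilution MIC testing of Candida parapsilosis ATCC 22019 followed CLSI methods in RPMI-1640, with or without 0.002% Tween-80. Yeast grown 48 hours at 35° C on Sabouraud dextrose agar was suspended to a 0.5 McFarland standard and diluted 1:100 to roughly 0.5-2.5×10^3 CFU/mL. The MIC was the lowest concentration preventing visible growth.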

[7] = test system: A. fumigatus MMX 6781 ATCC MYA-4609; experiment: MIC/MEC assay (CLSI microdilution); format: cell-based; settings: Aspergillus fumigatus
In short: as §1

[8] = test system: A. fumigatus from Aureogen; experiment: MIC/MEC assay (CLSI microdilution); format: cell-based; settings: Aspergillus fumigatus
In short: as §1

[9] = test system: A. fumigatus MMX 5944; experiment: MIC/MEC assay (CLSI microdilution); format: cell-based
In short: as §1

[10] = test system: C. neoformans MMX 0634 ATCC 90112; experiment: MIC assay (CLSI microdilution); format: cell-based; settings: Cryptococcus neoformans, read-out: MIC
[11] = test system: C. albicans MMX 2000 ATCC 10231; experiment: MIC assay (CLSI microdilution); format: cell-based; settings: Candida albicans, ATCC10231, RPMI plus 0.002% Tween-80; read-out: MIC
[12] = ATCC13073, 48 h, RPMI plus 0.002% Tween-80
[13] = ATCC13073, 48 h, read-out: MEC, RPMI plus 0.002% Tween-80
[14] = MMX5948, 48 h, RPMI plus 0.002% Tween-80
[15] = RPMI plus 0.002% Tween-80, 48 hr
[16] = ATCC10231, RPMI plus 0.002% Tween-80
[17] = Aspergillus fumigatus, 48 h, read-out: MEC, RPMI plus 0.002% Tween-80
[18] = Aspergillus fumigatus, 48 h, read-out: MEC, Without Tween-80
[19] = ATCC22019, RPMI plus 0.002% Tween-80
[20] = RPMI plus 0.002% Tween-80, 48 hr, read-out: MIC
[21] = Aspergillus fumigatus, 48 h, RPMI plus 0.002% Tween-80, read-out: MEC
[22] = Aspergillus fumigatus, 48 h, Without Tween-80, read-out: MEC
[23] = ATCC22019, RPMI plus 0.002% Tween-80, read-out: MIC
[24] = ATCC22019, Without Tween-80, read-out: MIC
[25] = ATCC90112, RPMI plus 0.002% Tween-80
[26] = 48 h, RPMI plus 0.002% Tween-80, read-out: MIC
[27] = ATCC13073, 48 h, RPMI plus 0.002% Tween-80, read-out: MEC
[28] = ATCC13073, 48 h, RPMI plus 0.002% Tween-80, read-out: MIC
[29] = MMX5948, 48 h, RPMI plus 0.002% Tween-80, read-out: MIC
[30] = 48 h, RPMI plus 0.002% Tween-80
[31] = Aspergillus niger, ATCC16888, 48 h, RPMI plus 0.002% Tween-80, read-out: MEC
[32] = Aspergillus niger, ATCC16888, 48 h, RPMI plus 0.002% Tween-80, read-out: MIC
[33] = Aspergillus fumigatus, MMX5944, 48 h, RPMI plus 0.002% Tween-80
[34] = Aspergillus fumigatus, MMX5944, 48 h, RPMI plus 0.002% Tween-80, read-out: MIC
[35] = ATCC10231, Without Tween-80, read-out: MIC
[36] = Aspergillus fumigatus, 48 h, RPMI plus 0.002% Tween-80, read-out: MIC
[37] = Aspergillus fumigatus, 48 h, Without Tween-80, read-out: MIC
[38] = ATCC90112, 72 h, 72 hour, RPMI plus 0.002% Tween-80

SMILES | MIC [1, 12] [µg/mL] | minimal effective concentration [1, 13] [µg/mL] | MIC [2, 14] [µg/mL] | MIC [3, 15] [µg/mL] | MIC [4, 16] [µg/mL] | minimal effective concentration [5, 17] [µg/mL] | minimal effective concentration [5, 18] [µg/mL] | MIC ([5]; Without Tween-80, 48 hr) | MIC [6, 19] [µg/mL] | MIC ([6]; ATCC22019, Without Tween-80) [µg/mL] | minimal effective concentration [7, 15] [µg/mL] | MEC [9, 15] [µg/mL] | minimal effective concentration [5, 21] [µg/mL] | minimal effective concentration [5, 22] [µg/mL] | MIC [6, 23] [µg/mL] | MIC [6, 24] [µg/mL] | MIC [10, 25] [µg/mL] | MIC [7, 26] [µg/mL] | minimal effective concentration [1, 27] [µg/mL] | MIC [1, 28] [µg/mL] | also measured
CC[C@H](C)[C@@H]1NC(=O)[C@@H]2CCCN2C(=O)[C@H](Cc2cccc(-c3ccc(OCc4ccccc4)cc3)c2)N(C)C(=O)[C@H](Cc2ccccc2)NC(=O)[C@H](C(C)C)N(C)C(=O)[C@@H]([C@@H](C)CC)OC(=O)[C@H](C(C)(C)O)N(C)C(=O)[C@H](CC(C)C)NC(=O)[C@H](C(C)C)N(C)C1=O [Compound 13] (cyclo(F[X19]PI[NMeV]L[NMeVal(β-OH)][Hmp(2R,3S)][NMeV])) | > 64 | 1 | > 64 | 8 | 0.5 | > 64 | > 64 | >64/>64 μg/mL | > 64 | > 64 |  |  |  |  |  |  |  |  |  |  | MEC [3, 15]: 2 µg/mL
CC[C@H](C)[C@@H]1NC(=O)[C@@H]2CCCN2C(=O)[C@H](Cc2cccc(-c3cccc4c3cnn4C)c2)N(C)C(=O)[C@H](Cc2ccccc2)NC(=O)[C@H](C(C)C)N(C)C(=O)[C@@H]([C@@H](C)CC)OC(=O)[C@H](C(C)(C)O)N(C)C(=O)[C@H](CC(C)C)NC(=O)[C@H](C(C)C)N(C)C1=O [Compound 14] (cyclo(F[X23]PI[NMeV]L[NMeVal(β-OH)][Hmp(2R,3S)][NMeV])) |  |  |  |  |  |  |  | > 64 µg/mL |  |  | 1 | 1 | 0.5 | 2 | 0.12 | 1 (≈ 0.812 µM) | 0.5 |  |  |  | MIC [7, 20]: > 64 µg/mL; minimal effective concentration ([1]; ATCC13073, RPMI plus 0.002% Tween-80, 48 hr, read-out: MEC): 0.25 µg/mL; MIC ([1]; ATCC13073, RPMI plus 0.002% Tween-80, 48 hr, read-out: MIC): > 64 µg/mL; minimal effective concentration ([2]; MMX5948, RPMI plus 0.002% Tween-80, 48 hr): > 64 µg/mL; MIC ([2]; MMX5948, RPMI plus 0.002% Tween-80, 48 hr, read-out: MIC): > 64 µg/mL; minimal effective concentration [8, 15]: 1 µg/mL; MIC [8, 20]: > 64 µg/mL; minimal effective concentration ([3]; Aspergillus niger, ATCC16888, RPMI plus 0.002% Tween-80, 48 hr, read-out: MEC): 0.12 µg/mL; MIC ([3]; Aspergillus niger, ATCC16888, RPMI plus 0.002% Tween-80, 48 hr, read-out: MIC): 0.12 µg/mL; MIC [9, 15]: 8 µg/mL; MIC ([4]; ATCC10231, RPMI plus 0.002% Tween-80, read-out: MIC): 0.03 µg/mL; MIC ([5]; Aspergillus fumigatus, RPMI plus 0.002% Tween-80, 48 hr, read-out: MIC): > 64 µg/mL
CC[C@H](C)[C@@H]1NC(=O)[C@@H]2CCCN2C(=O)[C@H](Cc2cccc(-c3ccc(N4CCN(C)CC4)cc3)c2)N(C)C(=O)[C@H](Cc2ccccc2)NC(=O)[C@H](C(C)C)N(C)C(=O)[C@@H]([C@@H](C)CC)OC(=O)[C@H](C(C)(C)O)N(C)C(=O)[C@H](CC(C)C)NC(=O)[C@H](C(C)C)N(C)C1=O [Compound 19] (cyclo(F[X2]PI[NMeV]L[NMeVal(β-OH)][Hmp(2R,3S)][NMeV])) |  |  |  | 0.015 |  |  |  | 2 µg/mL (≈ 1.57 µM) |  |  | 0.06 | 0.015 | 0.06 | 0.5 | 0.03 | 1 (≈ 0.784 µM) | 0.03 | 0.12 | 0.03 | 0.12 | minimal effective concentration [2, 14]: 0.008 µg/mL; MIC [2, 29]: 0.015 µg/mL; minimal effective concentration [8, 30]: 0.06 µg/mL; MIC [8, 26]: 0.25 µg/mL; minimal effective concentration [3, 31]: 0.008 µg/mL; MIC [3, 32]: 0.015 µg/mL; minimal effective concentration [9, 33]: 0.015 µg/mL; MIC [9, 34]: 0.06 µg/mL; MIC [4, 35]: 0.5 µg/mL (≈ 0.392 µM); MIC [5, 36]: 0.25 µg/mL; MIC [5, 37]: 1 µg/mL (≈ 0.784 µM); MEC ([5]; Without Tween-80, 48 hr): 1 µg/mL; MIC ([6]; Without Tween-80): 2 µg/mL (≈ 1.57 µM); MIC [11]: 0.015 µg/mL; MIC [10, 38]: 0.06 µg/mL
CC[C@H](C)[C@@H]1NC(=O)[C@@H]2CCCN2C(=O)[C@H](Cc2cccc(-c3ccc(N4CCN(C)CC4)nc3)c2)N(C)C(=O)[C@H](Cc2ccccc2)NC(=O)[C@H](C(C)C)N(C)C(=O)[C@@H]([C@@H](C)CC)OC(=O)[C@H](C(C)(C)O)N(C)C(=O)[C@H](CC(C)C)NC(=O)[C@H](C(C)C)N(C)C1=O [Compound 20] (cyclo(F[X3]PI[NMeV]L[NMeVal(β-OH)][Hmp(2R,3S)][NMeV])) |  |  |  |  |  |  |  | 2 µg/mL (≈ 1.57 µM) |  |  | 0.06 |  | 0.06 | 0.5 | 0.03 | 1 (≈ 0.783 µM) | 0.03 | 0.12 | 0.03 | 0.12 | minimal effective concentration [2, 14]: 0.008 µg/mL; MIC [2, 29]: 0.015 µg/mL; minimal effective concentration [8, 30]: 0.03 µg/mL; MIC [8, 26]: 0.12 µg/mL; minimal effective concentration [3, 31]: 0.008 µg/mL; MIC [3, 32]: 0.015 µg/mL; minimal effective concentration [9, 33]: 0.015 µg/mL; MIC [9, 34]: 0.12 µg/mL; MIC [4, 35]: 0.5 µg/mL (≈ 0.392 µM); MIC [5, 36]: 0.25 µg/mL; MIC [5, 37]: 1 µg/mL (≈ 0.783 µM); MEC ([5]; Without Tween-80, 48 hr): 1 µg/mL; MIC ([6]; Without Tween-80): 2 µg/mL (≈ 1.57 µM); MIC [11]: 0.008 µg/mL; MIC [10, 38]: 0.12 µg/mL
CC[C@H](C)[C@@H]1NC(=O)[C@@H]2CCCN2C(=O)[C@H](Cc2cccc(-c3cccc4ncccc34)c2)N(C)C(=O)[C@H](Cc2ccccc2)NC(=O)[C@H](C(C)C)N(C)C(=O)[C@@H]([C@@H](C)CC)OC(=O)[C@H](C(C)(C)O)N(C)C(=O)[C@H](CC(C)C)NC(=O)[C@H](C(C)C)N(C)C1=O [Compound 28] (cyclo(F[X11]PI[NMeV]L[NMeVal(β-OH)][Hmp(2R,3S)][NMeV])) | > 64 | > 64 | > 64 |  | 0.015 | > 64 | > 64 | >64/>64 μg/mL | 0.06 | 0.5 (≈ 0.407 µM) |  |  |  |  |  |  |  |  |  |  | MIC ([3]; Aspergillus niger, ATCC16888, 48 h, RPMI plus 0.002% Tween-80): 0.12 µg/mL; minimal effective concentration ([3]; Aspergillus niger, ATCC16888, 48 h, read-out: MEC, RPMI plus 0.002% Tween-80): 0.12 µg/mL
